From patent publication US20050208511A1, “DMBT1 as a clinical marker and uses thereof” (priority 2003, published 2005) come the findings set out here.

In assay [1] the test system is DMBT1. Kind of assay: quantitative RT-PCR of DMBT1 in uterus of ovariectomized rats. Format: in vivo, Wistar rats. Particulars: OVX rats, ethinyl estradiol + medroxyprogesterone acetate + 10 mg/kg mifepristone (FIG. 3B). Here is the method: Six weeks old ovariectomized Wistar rats (Charles River, Wilmington, Mass.) were dosed for either one day or six weeks with vehicle or test compounds. All treatments were delivered orally, once daily, in 0.5% methylcellulose or sesame oil. After treatment, the uteri were removed, total RNA was purified from the tissues using TRIzol reagent (Invitrogen, Carlsbad, Calif.) as directed by the manufacturer.
Quantitative reverse transcription-polymerase chain reactions (RT-PCR) of DMBT1 from rat RNA samples were carried out using a One-Step RT-PCR Master Mix Kit (Applied Biosystems, Foster City, Calif.) and an ABI Prism 7000 Sequence Detection System (Applied Biosystems), as described by the manufacturer. Commercially available primers and FAM-labeled MGB probes for human and rat DMBT1 (catalog numbers Hs00244827_ml and Rn00575705_ml, respectively) were obtained from Applied Biosystems (Foster City, Calif.). Messenger RNA levels were normalized against 18S ribosomal RNA levels determined using primers and a VIC- and TAMRA-labeled probe from the same vendor.

Assay [2] concerns DMBT1. Briefly: DNA microarray analysis of DMBT1 expression in endometrium of ovariectomized monkeys. Format: in vivo, cynomolgus monkeys (Macaca fascicularis). The conditions noted are these: for effect on estrogen-induced increase in DMBT1 mRNA levels: OVX monkeys with estrogen implant plus mifepristone 10 mg/kg/d, microarray analysis and PCR. The text has this: (§1) Adult female cynomolgus monkeys (Macaca fascicularis) were obtained from Covance Research Products. Following one complete menstrual cycle and in the follicular phase of the subsequent menstrual cycle, the animals were ovariectomized by a mid-ventral laparotomy. Ovariectomized (OVX) animals were subject to estrogen treatment after the fourth week following ovariectomy.
Following this period, the OVX monkeys were euthanized and tissue biopsies were taken from endometria of the monkeys treated with estrogen and the placebo. (Details of the endometrial features in OVX monkeys and OVX+estrogen-treated monkeys is described in Example 4.) The biopsies were placed in sterile containers, snap frozen immediately in liquid nitrogen, and stored at −80° C. until processed. Total RNA was prepared from each endometrial tissue biopsy, as described below.
Total RNA was prepared from endometrial tissue biopsies (approximately 50 mg each) using RNAzol™ (Tel-Test, Friendswood, Tex.), as follows. Two milliliters of RNAzol™ were used per 100 mg of tissue. Tissues were homogenized for 2 to 3 minutes using a Tissue Tearor homogenizer (Model No. 985-370; BioSpec Products, Bartlesville, Okla.), then transferred to a glass mortar bowl. The tissues were ground with at least 10 strokes of the pestle until a clear suspension was obtained. The homogenates were transferred to a polypropylene conical flask, to which 0.1 mL of chloroform per 1 mL of homogenate was added. The mixtures were then shaken vigorously for 1 minute. The suspensions were then transferred to a 2 mL microcentrifuge tube and centrifuged for 15. minutes at 12000 g and at 4° C. in a fixed angle rotor using a Biofuge 17R centrifuge (Baxter, Deerfield, Ill.). The aqueous phase was carefully transferred to a new microcentrifuge tube. An equal volume of isopropanol was added to the aqueous phase, mixed gently, and incubated at 4° C. for 15 minutes. RNA was pelleted by centrifuging the mixture for 15 minutes at 12000 g and at 4° C. as described above. The supernatant was removed and the pellet washed with 75% (v/v) ethanol (Pharmco Products, Brookfield, Conn.), followed by centrifugation at 7500 g for 8 minutes at 4° C. The supernatant was removed, and then the RNA pellet was air-dried briefly and resuspended in RNase-free water (Promega, Madison, Wis.). The samples were then treated with Amplification Grade RNase-free DNase I to remove any residual DNA (Invitrogen, Carlsbad, Calif.). Specifically, twenty micrograms of RNA were treated in a reaction volume of 0.1 mL, containing 1× DNase I reaction buffer and 10 units of DNase I. The reaction continued at room temperature for 15 minutes. […]

The subject of another assay is endometrium. Briefly: average endometrial thickness in treated monkeys. The conditions noted are these: Ovx/E2 + PRM 10 mg/kg daily oral, 19 days. Format: in vivo, cynomolgus monkeys (Macaca fascicularis).
Description: as §1
Animals and treatment were the same as Example 1 with the following exceptions. To study the effect of PRMs on the endometrium and gene expression, groups of three ovariectomized (OVX) monkeys were given an estrogen implant (E2), plus daily oral doses of the following PRMs for 19 days: mifepristone at 10 mg/kg/d; 17N11-DE (17β-N-substituted-11β-dimethylaminophenyl-estra-4,9-dien-3-one) 1.0, 3.0, or 10 mg/kg/d; 17N11-PE (17β-N-substituted-11β-piperidinylphenyl-estra-4,9-dien-3-one) at 1.0, 3.0, or 10 mg/kg/d. A placebo (0.5% methylcellulose) was administered as a control. 17N11-DE and 17N11-PE are two PRMs that have been described in PCT Publication No. WO 99/62928. Tissue samples were taken from endometria and myometria for histological analysis.

The next assay relates to uterus. Kind of assay: uterine weight in 22-day-old female rats. The assay is classed as in vivo, Sprague Dawley rats. The conditions noted are these: oral; for uterine weight on co-treatment with estrone: 70 μg/kg/day estrone + 1 mg/kg/day compound, three days (FIG. 1); for uterine weight: compound alone, three days, estrone 70 μg/kg/day, others 1 mg/kg/day, vs control (FIG. 1). On the procedure: (§2) Ten groups of 22-day-old female Sprague Dawley rats (three animals per group) were used to evaluate the effects of estrone, tamoxifen, raloxifene, and ICI 182780 on DMBT1 expression in the uterus. The following groups of rats were treated for three days as follows:
(§3) All treatments were delivered orally in 0.5% Methocel. After treatment the animals were euthanized and the uteri were collected, weighed, frozen in liquid nitrogen, and stored at −20° C. RNA was purified from the frozen uteri using 1.0 mL of TRIzol Reagent (Invitrogen) and a PowerGen 25 tissue homogenizer (Fisher Scientific), according to the manufacturer's instructions.
In rats, uteri increase in size under the proliferative influence of estrogen, and this increase in size can be measured by weighing the tissues.
Administration of the treatments and collection of tissue samples were carried out according to the procedure described in Example 2. RNA was purified, blotted and hybridized to radioactively labeled rat ebnerin cDNA as in described in Example 2.

The subject of assay [3] is DMBT1. Kind of assay: immunohistochemical analysis of DMBT1 expression in rat uterus. Particulars: OVX rats dosed six weeks; compared with estrogen (ethinyl estradiol). The assay is classed as in vivo, Wistar rats.
Description: Tissues were trimmed and processed for paraffin embedding according to conventional methods. Five-micron sections were cut, mounted onto SuperFrost Plus+(Fisher Scientific, Pittsburgh, Pa.) microscopic slides and dried overnight. […] Briefly, tissue sections on microscopic slides were dewaxed and re-hydrated. Slides were microwaved for 5 min in Target buffer (Dako, Carpenturia, Calif.), cooled, placed in phosphate-buffered saline (PBS, pH 7.4) and treated with 3% (v/v) H2O2 for 10 min at room temperature. All incubations (30 min each) and washes were performed at room temperature. Normal rabbit blocking serum (Vector Labs, Burlingame, Calif.) was placed on all slides for 10 min. After a brief rinse in PBS, sections were treated with goat polyclonal DMBT1 primary antibody (1:25, Hypromatrix, Worcester, Mass.). Slides were then washed in PBS and treated with rabbit anti-goat biotinylated secondary antibodies (Vector Labs). […]
The rabbit polyclonal PCNA (proliferating cell nuclear antigen) antibody (1:4000; Sigma, St. Louis, Mo.) was detected using the HRP:SG detection system as described for routine single IHC, except the use of the SG chromogen (Vector Labs). […] DMBT1 was then detected using the Fast Red chromogen (Sigma, St. Louis, Mo.). […]
The subject of assay [4] is DMBT1. Briefly: Northern analysis of DMBT1 expression in rat uterus. The assay is classed as in vivo, Sprague Dawley rats. The conditions noted are these: 70 μg/kg/day estrone + 1 mg/kg/day compound, relative to estrone alone (FIG. 3A). Here is the method:
as §2, §3
Northern analysis was performed to determine gene expression, including DMBT1 expression, in the uterus of control and treated rats. For gel electrophoresis, samples containing 2 μg of total RNA in a volume of 2 μL of water were added to 6 microliters of formaldehyde loading dye (Ambion) and incubated at 65° C. for 20 minutes. One microliter of a 0.1 mg/ml ethidium bromide solution was then added to each sample. […] The RNA was transferred to a Hybond-N membrane (Amersham) for […] by capillary transfer blotting, using 10×SSC (0.15 M Sodium citrate, pH 7.0, 1.5 M NaCl), after which the membranes were stained with ethidium bromide, destained with water, and photographed for lane loading comparison. The membranes were then air-dried and kept at room temperature until hybridization.
A glycerol stock of a bacterial clone carrying a plasmid (pINCY) containing the rat ebnerin (DMBT1) gene was obtained from Incyte Genomics (ID#: 0000101155000011). […] One colony was selected and used to inoculate 200 mL of Lennox L Broth (Sigma)+50 μg/mL ampicillin (Sigma). The liquid culture was grown overnight at 37° C. and the bacteria were collected by centrifugation. Purification of plasmid DNA was carried out using a QIAfilter plasmid maxi kit (QIAgen) according to the manufacturer's instructions.
Purified pINCY/DMBT1 was treated with the restriction enzymes EcoRI and NotI (Promega) for the preparation and isolation of a 1,174 bp DNA fragment containing the ebnerin probe (DMBT1). The products of the restriction enzyme reaction were separated by electrophoresis on a 1× TAE, 1% SeaKem Gold Agarose Reliant gel, and the band corresponding to the 1.174 kb DNA ebnerin clone was excised. The ebnerin DNA probe was purified from the gel slice using a QIAquick Gel Extraction Kit (QIAgen) according to the manufacturer's instructions. Bound DNA was eluted from the QIAgen column with 50 μL of elution buffer. The ebnerin DNA probe in the eluate was quantified by comparison to a DNA standard by gel electrophoresis. The ebnerin DNA probe was then diluted to a final concentration of 25 ng/μL.
Random-primed probe was made from 25 ng of the purified ebnerin DNA using a DECAprime II kit (Ambion) and Redivue α-^32P dATP (10 mCi/mL) (Amersham) according to the manufacturer's instructions, with the exception that the reaction was incubated for 30 minutes at 37° C. After adding EDTA to stop the reaction, the labeled probe was purified using a QIAquick Nucleotide Removal Kit (QIAgen) according to the manufacturer's instructions, with the final volume of eluted probe being 50 μL. Two microliters were counted in a scintillation counter to ensure optimal radionuclide incorporation (>2×10^6 cpm/μL).
The blot membrane as described in section A was wet in 2×SSC buffer (Sigma) for 15 minutes, then pre-hybridized in 10 mL RapidHyb (Amersham) at 65° C. for 20 minutes. The probe was boiled for 10 minutes, and 25 μL was added to 10 mL of RapidHyb, pre-warmed to 65° C. The blot membrane was added to the diluted probe solution and incubated, with rotation, in a hybridization oven for approximately 10 hours.
The membrane was removed from the probe-containing solution and rinsed twice with 2×SSPE +0.5% SDS+0.5% pyrophosphate at room temperature, and then washed once, with gentle agitation, for 30 minutes at room temperature in the same solution.

In a further assay the test system is luminal epithelium. Kind of assay: luminal epithelium thickening in rat uterus sections. The conditions noted are these: OVX rats dosed six weeks, compared to sham and ovariectomized control; estrogen = ethinyl estradiol. Format: in vivo, Wistar rats. On the procedure:
Mature, six week-old ovariectomized or sham-operated Wistar rats (Charles River) were dosed with ethinyl estradiol, tamoxifen or raloxifene for six weeks. Uteri were removed, sectioned for immunohistochemical analysis for DMBT1 expression using a polyclonal goat antibody against the human protein.
Tissues were trimmed and processed for paraffin embedding according to conventional methods. Five-micron sections were cut, mounted onto SuperFrost Plus+(Fisher Scientific, Pittsburgh, Pa.) microscopic slides and dried overnight. The protocols for routine single immunohistochemistry (IHC) have been described previously (D'Andrea et al., 2001, Biotechnic Histochem. 76:97-106). Briefly, tissue sections on microscopic slides were dewaxed and re-hydrated. Slides were microwaved for 5 min in Target buffer (Dako, Carpenturia, Calif.), cooled, placed in phosphate-buffered saline (PBS, pH 7.4) and treated with 3% (v/v) H2O2 for 10 min at room temperature. All incubations (30 min each) and washes were performed at room temperature. Normal rabbit blocking serum (Vector Labs, Burlingame, Calif.) was placed on all slides for 10 min. After a brief rinse in PBS, sections were treated with goat polyclonal DMBT1 primary antibody (1:25, Hypromatrix, Worcester, Mass.). Slides were then washed in PBS and treated with rabbit anti-goat biotinylated secondary antibodies (Vector Labs). After washing in PBS, the avidin-biotin-horseradish peroxidase complex reagent (HRP, Vector Labs) was added. All slides were washed and treated with 3,3′-diaminobenzidine (DAB, Biomeda, Foster City, Calif.) two times for 5 min each, rinsed in distilled water, and counterstained with hematoxylin.

Take `CC#C[C@]1(O)CC[C@H]2[C@@H]3CCC4=CC(=O)CCC4=C3[C@@H](c3ccc(N(C)C)cc3)C[C@@]21C` [mifepristone]: the “effect on progestin blockade of DMBT1 mRNA increase” value in the assay on DMBT1 [1] was “blocked in turn”. Besides, the “effect on estrogen-induced increase in DMBT1 mRNA levels” value was “inhibited” with DMBT1 [2] and “prevented the increase in DMBT1 mRNA levels” with DMBT1 [2] (listed as Mifepristone). The “repression of estrogen-induced DMBT1 mRNA levels” value in the assay with DMBT1 [2] (Ovx/E2 + 10 mg/kg, microarray (FIG. 7)) is reported as “about 20 fold”. For the same molecule, the “Endometrial Thickness (mm)” value was “shrinks to about the thickness of that seen with leuprolide-treated tissue” in the assay with endometrium and 1.17 mm in the assay on endometrium (listed as Mif).

`O=C(c1ccc(OCCN2CCCCC2)cc1)c1c(-c2ccc(O)cc2)sc2cc(O)ccc12` [raloxifene]: in the assay on uterus, the “uterine weight on co-treatment with estrone” value is listed as “lower uterine weights, as compared to estrone” and the uterine weight result was “did not significantly affect uterine weight”. Besides, in the assay on DMBT1 [3], the “cell levels of DMBT1 (immunostaining) in luminal epithelium” value was “higher cell levels of DMBT1 than estrogen”. The “DMBT1 expression on coadministration with estrone” value in the assay on DMBT1 [4] was “additive increase”. In addition, in the assay on luminal epithelium, the “thickening of the luminal epithelium” value is recorded as “not with raloxifene treatment”.

For the molecule `CC/C(=C(\c1ccccc1)c1ccc(OCCN(C)C)cc1)c1ccccc1` [tamoxifen], in the assay on uterus, the “uterine weight on co-treatment with estrone” value is “lower uterine weights, as compared to estrone” and the uterine weight result was “increases uterine weight only moderately”. For the same molecule, in the assay on DMBT1 [3], the “cell levels of DMBT1 (immunostaining) in luminal epithelium” value is listed as “higher cell levels of DMBT1 than estrogen”. Also, the “DMBT1 expression on coadministration with estrone” value with DMBT1 [4] is “increased slightly”. Also, in the assay on luminal epithelium, the “thickening of the luminal epithelium” value is reported as “even more pronounced”.
